Laboratory results reported in patent US10766883B2, “Aminopyrazoles as janus kinase inhibitors” (Merck Sharp & Dohme Corp., priority 2016, dated 2020).
Like-named read-outs stand apart in the source and are kept apart here.

What was measured:
[1] = molecular target: JAK3 (Homo sapiens (Human), UniProt P52333); assay: JAK biochemical HTRF enzyme assay, JAK3; details: reference compound, mean +/- spread across assay runs
Experimental: (§1) The ability of compounds to inhibit the activity of JAK1, JAK2, JAK3, and Tyk2 was measured using a recombinant purified GST-tagged catalytic domain for each enzyme (InVitrogen/Life Technologies/ThermoFisher Scientific Inc., Waltham, Mass., USA; catalogue numbers: M4290(JAK1), M4290(JAK2), M4290(JAK3), M4290(Tyk2)) in an HTRF format biochemical assay. The reactions employed a common peptide substrate, LCB-[…]-NH2 (Merck Sharp & Dohme, Kenilworth, N.J., USA).
(§2) The basic assay protocol is as follows: First, 250 nL of diluted compounds in DMSO were dispensed into the wells of a dry 384-well Black plate (GreinerFluotrac™ catalog number: 781076; Greiner Bio-One GmbH, Frickenhausen, Germany) using a Labcyte Echo® 555 acoustic dispenser (Clarcyte, Inc, Sunnyvale, Calif., USA). Subsequent reagent additions employed an Agilent™ Bravo™ liquid handling system (Aligent Technologies, Santa Clara, Calif., USA). […] After equilibration, 2 μL of 10×ATP in 1× assay buffer was added to initiate the kinase reaction and the plates were shaken and then incubated at ambient temperature for 120 minutes. […] HTRF signal=10,000*665 nm reading/615 nm reading. After normalization to untreated controls, the percent inhibition of the HTRF signal at each compound concentration was calculated. […]

[2] = molecular target: Tyk2 (Homo sapiens (Human), UniProt P29597); assay: JAK biochemical HTRF enzyme assay, Tyk2; details: reference compound, mean +/- spread across assay runs
Experimental: as §1, §2

[3] = molecular target: JAK1 (Homo sapiens (Human), UniProt P23458); assay: JAK biochemical HTRF enzyme assay, JAK1
Experimental: (§3) The ability of compounds to inhibit the activity of JAK1, JAK2, JAK3, and Tyk2 was measured using a recombinant purified GST-tagged catalytic domain for each enzyme (InVitrogen/Life Technologies/ThermoFisher Scientific Inc., Waltham, Mass., USA; catalogue numbers: M4290(JAK1), M4290(JAK2), M4290(JAK3), M4290(Tyk2)) in an HTRF format biochemical assay.
(§4) Subsequent reagent additions employed an Agilent™ Bravo™ liquid handling system (Aligent Technologies, Santa Clara, Calif., USA). […] After equilibration, 2 μL of 10×ATP in 1× assay buffer was added to initiate the kinase reaction and the plates were shaken and then incubated at ambient temperature for 120 minutes. […] After normalization to untreated controls, the percent inhibition of the HTRF signal at each compound concentration was calculated. The plot of percent inhibition versus the log of compound concentration was fit with a 4-parameter dose response equation to calculate IC50 values.

[4] = tested on: Interleukin 4 (IL4)—JAK1/JAK3—STAT6 Pathway; assay: IL4 CellSensor beta-lactamase reporter assay (STAT6-bla RA-1 cells); format: cell-based; details: reference compound, mean +/- spread across assay runs
Description: (§5) Inhibition of the activity of JAK kinases (JAK1, JAK2, JAK3 and TYK2) in intact cells was quantified in antagonist mode using CellSensor® transcriptional reporter technology (Life Technologies/ThermoFisher Scientific Inc., Waltham, Mass., USA; https://www.thermofisher.com/us/en/home/industrial/pharma-biopharma drug-discovery-development/target-and-lead-identification-and-validation/pathway-biology/cellular-pathway-analysis/cellsensor-cell-lines.html), in three independent cell lines engineered to detect IL4, IL6 and EPO signaling. In brief, CellSensor® cell lines (see details below for each assay) carrying a stably integrated β-Lactamase reporter gene under control of specific cis-regulatory STAT elements responsive to the pathway being monitored were pre-treated with test compounds serially diluted in DMSO (see preparation and dosing of compounds and agonist cytokines section). Following incubation with compounds, IL4, IL6, or EPO were added to each cognate cell line at a concentration equal to a dose necessary to achieve 80% of the maximal response (EC80).
(§6) Incubation with compounds, cytokines and LiveBLAzer™ were carried out at 37° C. in a tissue culture incubator maintained at 90% humidity and 5% CO2.
Interleukin 4 (IL4)—JAK1/JAK3—STAT6 Pathway […]

[5] = tested on: EPO/Jak2/Stat5 pathway; assay: EPO CellSensor beta-lactamase reporter assay (irf1-bla TF-1 cells); format: cell-based, human; details: for IC50: Homo sapiens; for EPO/IL-6: ratio EPO IP / IL-6 IP
Description: as §5, with “section).” for “section). Following incubation with compounds, IL4, IL6, or EPO were added to each cognate cell line at a concentration equal to a dose necessary to achieve 80% of the maximal response (EC80).”
as §6
Erythropoietin (EPO)—JAK2—STAT5 Pathway
CellSensor irf1-bla TF-1 cells carry a stably integrated β-Lactamase reporter gene under control of the STAT5 Response Elements present in the Interferon Regulatory Factor I (IRF1) gene promoter.
(§7) Each CellSensor® cell line was subsequently plated as per supplier's instructions (30,000 cells in 32 μL/well) and mixed with the compound. Following a 60 minute incubation, cells were subsequently stimulated by addition of 8 μL of cognate cytokine (EC80 dose of IL4, IL6 and EPO) and incubated for an additional 3 hours, before adding LiveBLAzer™-FRET B/G substrate.
(§8) The IL-6 assay identifies agents that inhibit the beta-lactamase reporter activity initiated through stimulation of the IL-6R/JAK1/2/Stat3 pathway with recombinant human IL-6. The EPO assay identifies agents that inhibit the beta-lactamase reporter activity initiated through stimulation of the EPO/Jak2/Stat5 pathway with human EPO. Inhibition of EPO signaling leads to an inability to recover from anemia of chronic disease. […] That is, it is desirable for the EPO/IL-6 IC50 ratios to be a relatively large number.

[6] = tested on: IL-6R/JAK1/2/Stat3 pathway; assay: IL6 CellSensor beta-lactamase reporter assay (SIE-bla ME-180 cells); format: cell-based; details: Homo sapiens
Description: as §5, with “section).” for “section). Following incubation with compounds, IL4, IL6, or EPO were added to each cognate cell line at a concentration equal to a dose necessary to achieve 80% of the maximal response (EC80).”
as §6
Interleukin 6 (IL6)—JAK1/JAK2—STAT4 Pathway
CellSensor™ SIE-bla ME-180 cells carrying a stably integrated β-Lactamase reporter gene under control of the Sis-Inducible Element (SIE).
as §7, §8

[7] = molecular target: JAK2 (Homo sapiens (Human), UniProt O60674); assay: JAK biochemical HTRF enzyme assay, JAK2; details: for JAK2/1: ratio JAK2 IC50 / JAK1 IC50
Experimental: as §3, §4

[8] = reference compound, mean +/- spread across assay runs
[9] = irf1-bla TF-1 cells, EPO at EC80, read-out: EPO IP
[10] = SIE-bla ME-180 cells, IL6 at EC80, read-out: IL-6 IP
[11] = HTRF, GST-tagged catalytic domain, ATP 8.5 μM
[12] = HTRF, GST-tagged catalytic domain, ATP 31.8 μM

JAK1, sequence (P23458 875-1153): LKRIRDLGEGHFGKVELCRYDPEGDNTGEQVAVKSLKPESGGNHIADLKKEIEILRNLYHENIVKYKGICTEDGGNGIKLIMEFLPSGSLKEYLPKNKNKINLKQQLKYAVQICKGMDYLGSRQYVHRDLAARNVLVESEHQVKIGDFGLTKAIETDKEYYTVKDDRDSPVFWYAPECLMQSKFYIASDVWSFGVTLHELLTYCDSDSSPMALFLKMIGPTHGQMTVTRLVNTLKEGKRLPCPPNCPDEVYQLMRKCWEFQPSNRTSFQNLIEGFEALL
JAK2, sequence (O60674 849-1124): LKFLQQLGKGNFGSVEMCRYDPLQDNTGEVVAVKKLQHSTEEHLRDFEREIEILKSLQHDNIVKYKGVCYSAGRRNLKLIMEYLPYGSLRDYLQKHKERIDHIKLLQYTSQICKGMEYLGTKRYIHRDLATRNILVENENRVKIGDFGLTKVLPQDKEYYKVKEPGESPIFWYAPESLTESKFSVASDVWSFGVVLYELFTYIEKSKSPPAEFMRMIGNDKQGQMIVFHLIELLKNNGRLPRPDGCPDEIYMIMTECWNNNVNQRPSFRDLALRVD
Tyk2, sequence (P29597 897-1176): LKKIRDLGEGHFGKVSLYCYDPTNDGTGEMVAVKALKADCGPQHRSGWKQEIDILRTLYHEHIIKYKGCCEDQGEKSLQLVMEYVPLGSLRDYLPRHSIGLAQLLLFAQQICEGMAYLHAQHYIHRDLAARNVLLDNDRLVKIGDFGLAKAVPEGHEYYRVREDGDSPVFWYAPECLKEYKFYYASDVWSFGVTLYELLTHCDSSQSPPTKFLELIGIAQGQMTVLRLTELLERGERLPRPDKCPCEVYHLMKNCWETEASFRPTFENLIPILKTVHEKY
JAK3, sequence (P52333 822-1111): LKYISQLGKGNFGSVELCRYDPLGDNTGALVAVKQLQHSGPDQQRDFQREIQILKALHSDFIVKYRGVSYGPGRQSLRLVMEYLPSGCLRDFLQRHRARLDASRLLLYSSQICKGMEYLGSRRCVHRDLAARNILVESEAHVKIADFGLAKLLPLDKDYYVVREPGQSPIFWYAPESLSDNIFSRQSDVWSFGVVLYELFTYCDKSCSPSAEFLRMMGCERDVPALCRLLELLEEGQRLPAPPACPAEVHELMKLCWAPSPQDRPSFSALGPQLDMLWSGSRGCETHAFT

Compound	IC50 [5, 9]	IC50 [6, 10]	IC50 [7, 11]	JAK2/1 [7]	IC50 [3, 12]	EPO/IL-6 [5]	also measured
CN(C)[C@H]1CC[C@H](n2cc(C(N)=O)c(Nc3ccc(Cl)cc3)n2)[C@@H](C#N)C1 (single isomer, unassigned) [Reference Compound No. 1, 3-[(4-chlorophenyl)amino]-1-[(1S,2S,4S or 1R,2R,4R)-2-cyano-4-(dimethylamino)cyclohexyl]-1H-pyrazole-4-carboxamide]							IC50 [1]: 1350 nM; IC50 [2]: 14 nM; IC50 [3, 8]: 1.47 nM; IC50 [4]: 25.7 nM
N#C[C@H]1CCOC[C@@H]1n1cc(C(N)=O)c(Nc2ccc(Cl)c(Cl)c2)n1 [Comp. Ex-2, reference compound]	2170 nM	69 nM				31	
N#C[C@H]1CCOC[C@@H]1n1cc(C(N)=O)c(Nc2ccc(OC(F)(F)F)cc2)n1 [Comp. Ex-3, reference compound]	80 nM	14 nM				6	
COc1cc(Nc2nn([C@H]3COCC[C@@H]3C#N)cc2C(N)=O)ccc1Cl [Ex-1, 3-((4-Chloro-3-methoxyphenyl)amino)-1-((3R,4S)-4-cyanotetrahydro-2H-pyran-3-yl)-1H-pyrazole-4-carboxamide]	280 nM	15 nM	3.88 nM	32	0.12 nM	19	
COc1cc(Nc2nn([C@H]3COCC[C@@H]3C#N)cc2C(N)=O)ccc1C#N [Ex-3, 3-((4-cyano-3-methoxyphenyl)amino)-1-((3R,4S)-4-cyanotetrahydro-2H-pyran-3-yl)-1H-pyrazole-4-carboxamide]	431 nM	19 nM	3.28 nM	49	0.07 nM	23	
Cc1noc2ccc(Nc3nn([C@H]4COCC[C@@H]4C#N)cc3C(N)=O)cc12 [Ex-5, 1-((3R,4S)-4-cyanotetrahydro-2H-pyran-3-yl)-3-((3-methylbenzo[d]isoxazol-5-yl)amino)-1H-pyrazole-4-carboxamide]	309 nM	17 nM	3.04 nM	19	0.16 nM	18	
CS(=O)(=O)c1ccc(Nc2nn([C@H]3CCCC[C@@H]3C#N)c3cc[nH]c(=O)c23)cc1 [Reference Compound No. 2, (1S,2S)-2-(3-{[4-(methylsulfonyl)phenyl]amino}-4-oxo-4,5-dihydro-1H-pyrazolo[4,3-c]pyridin-1-yl)cyclohexanecarbonitrile, reference compound]							IC50 [1]: 21.9 nM; IC50 ([6]; ME-180, reference compound, mean +/- spread across assay runs, read-out: IL6 CellSensor assay IC50): 21 nM; IC50 [7, 8]: 1 nM; IC50 ([5]; TF-1, reference compound, mean +/- spread across assay runs, read-out: EPO CellSensor assay IC50): 39.5 nM; potency spread across the IL6, EPO and IL4 CellSensor assays ([5]; across all three CellSensor assays): two to three; IC50 [2]: 0.28 nM; IC50 [3, 8]: 0.17 nM; IC50 [4]: 11.1 nM

Further lines, with some results ahead:

IC50 [5, 9]	IC50 [6, 10]	IC50 [7, 11]	JAK2/1 [7]	IC50 [3, 12]	Compound	EPO/IL-6 [5]	also measured
132 nM					N#C[C@H]1CCOC[C@@H]1n1cc(C(N)=O)c(Nc2ccc(Cl)cc2)n1 [Comp. Ex-1, reference compound]	9	
89 nM	14 nM				N#Cc1ccc(Nc2nn([C@H]3COCC[C@@H]3C#N)cc2C(N)=O)cc1 [Comp. Ex-4, reference compound]	6	
649 nM	22 nM	5.48 nM	22	0.25 nM	CSc1cc(Nc2nn([C@H]3COCC[C@@H]3C#N)cc2C(N)=O)ccc1Cl [Ex-2, 3-((4-chloro-3-(methylthio)phenyl)amino)-1-((3R,4S)-4-cyanotetrahydro-2H-pyran-3-yl)-1H-pyrazole-4-carboxamide]	30	
744 nM	47 nM	9.7 nM	20	0.49 nM	CC(C)c1cc(Nc2nn([C@H]3COCC[C@@H]3C#N)cc2C(N)=O)ccc1C#N [Ex-4, 3-((4-cyano-3-isopropylphenyl)amino)-1-((3R,4S)-4-cyanotetrahydro-2H-pyran-3-yl)-1H-pyrazole-4-carboxamide]	16	
